Measured values published in US7351724B2, “Oxadiazole ketone inhibitors of fatty acid amide hydrolase” (The Scripps Research Institute, priority 2004, dated 2008).
Read-outs that look alike come from different tables or passages of the source.

Columns and labels:
KIAA1363 = molecular target: T1, KIAA1363 (Mus musculus, UniProt Q8BLF1); assay: Proteome-wide serine hydrolase selectivity screen, competition with RPFP active site labeling; assay type: binding; settings: inhibition of RPFP labeling, read-out: KIAA IC50
T1 construct: from tissue
T1 sequence (Q8BLF1 1-408): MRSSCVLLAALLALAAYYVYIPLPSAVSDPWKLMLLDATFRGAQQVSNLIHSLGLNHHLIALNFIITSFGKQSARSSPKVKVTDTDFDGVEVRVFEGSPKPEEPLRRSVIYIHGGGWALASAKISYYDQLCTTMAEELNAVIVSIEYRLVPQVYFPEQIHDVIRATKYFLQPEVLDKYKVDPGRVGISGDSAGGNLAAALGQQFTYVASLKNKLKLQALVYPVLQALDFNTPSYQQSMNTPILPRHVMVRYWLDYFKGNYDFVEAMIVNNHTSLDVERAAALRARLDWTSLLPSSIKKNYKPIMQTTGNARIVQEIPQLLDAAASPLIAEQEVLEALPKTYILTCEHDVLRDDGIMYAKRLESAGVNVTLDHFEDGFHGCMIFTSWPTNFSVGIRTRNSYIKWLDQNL
Excerpt: (§1) Serine hydrolases represent one of the largest classes of enzymes collectively comprising approximately 3% of the predicted Drosophila proteome. Subclasses include serine proteases, lipases, esterases, amidases, and transacetylases.

FAAH [1] = molecular target: T2, FAAH (Mus musculus, UniProt O08914); assay: as above; assay type: binding; settings: inhibition of RPFP labeling
T2 construct: from tissue
T2 sequence (O08914 1-579): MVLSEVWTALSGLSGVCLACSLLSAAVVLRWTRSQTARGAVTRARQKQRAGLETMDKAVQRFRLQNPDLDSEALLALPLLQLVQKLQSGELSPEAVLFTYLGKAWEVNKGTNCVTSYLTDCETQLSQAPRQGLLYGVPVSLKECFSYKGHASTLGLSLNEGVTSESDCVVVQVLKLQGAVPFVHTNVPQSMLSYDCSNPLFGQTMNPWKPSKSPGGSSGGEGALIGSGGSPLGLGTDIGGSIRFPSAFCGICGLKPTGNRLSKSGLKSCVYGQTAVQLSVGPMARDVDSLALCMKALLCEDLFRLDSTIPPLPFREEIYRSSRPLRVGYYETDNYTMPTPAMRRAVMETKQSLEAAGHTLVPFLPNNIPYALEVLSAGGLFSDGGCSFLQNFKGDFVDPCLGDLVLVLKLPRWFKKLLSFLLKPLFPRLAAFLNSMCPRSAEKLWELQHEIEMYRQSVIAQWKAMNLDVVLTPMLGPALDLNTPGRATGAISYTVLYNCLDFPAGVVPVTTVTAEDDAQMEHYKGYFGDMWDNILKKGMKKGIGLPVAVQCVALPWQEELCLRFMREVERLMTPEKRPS
Excerpt: as §1

[2] = molecular target: T3, triacylglycerol hydrolase (TGH) (Mus musculus, UniProt Q8VCT4); assay: as above; assay type: binding; settings: inhibition of RPFP labeling
T3 construct: from tissue
T3 sequence (Q8VCT4 19-565): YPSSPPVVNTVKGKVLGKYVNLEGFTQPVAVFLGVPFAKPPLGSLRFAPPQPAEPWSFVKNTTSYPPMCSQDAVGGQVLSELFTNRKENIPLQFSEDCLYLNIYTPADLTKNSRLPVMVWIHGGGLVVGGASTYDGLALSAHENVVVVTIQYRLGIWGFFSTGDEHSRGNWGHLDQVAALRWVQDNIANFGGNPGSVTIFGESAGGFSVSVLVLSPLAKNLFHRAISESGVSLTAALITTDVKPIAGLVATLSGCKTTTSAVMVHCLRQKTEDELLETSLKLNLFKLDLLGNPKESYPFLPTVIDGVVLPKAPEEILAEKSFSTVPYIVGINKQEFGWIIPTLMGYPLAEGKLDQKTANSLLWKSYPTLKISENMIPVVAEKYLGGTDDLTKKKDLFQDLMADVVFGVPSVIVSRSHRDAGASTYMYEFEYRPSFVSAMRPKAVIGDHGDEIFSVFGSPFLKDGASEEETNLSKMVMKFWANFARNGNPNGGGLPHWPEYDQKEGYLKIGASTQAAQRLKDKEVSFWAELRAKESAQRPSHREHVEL
Excerpt: as §1
Biotinylated (B) or fluorescently-tagged (rhodamine, R) PEG-fluorophosphonate (BPFP or RPFP, respectively) have been used to isolate and identify (BPFP) or quantitate (RPFP) proteome serine hydrolases through selective, irreversible active site labeling (Kidd, D., et al., 2001; Liu, Y., et al., 1999). Extending this to the assessment of inhibitor selectivity required incubation of the proteome with RPFP in the presence of systematically varied concentrations of inhibitor followed by SDS-PAGE to detect serine hydrolases sensitive to the inhibitor (Leung, D., et al., 2003). A resulting inhibition of RPFP active site labeling correlated with inhibitor affinity for the target and permitted the simultaneous assessment of competitive enzymes.
Two enzymes emerged from the screen as competitive targets for the oxadiazole ketone compounds detailed herein: triacylglycerol hydrolase (TGH) and an uncharacterized membrane-bound hydrolase that lacks known substrates and function (KIAA1363) (Kidd, D., et al., 2001; Liu, Y., et al., 1999; Leung, D., et al., 2003).

FAAH [3] = molecular target: T4, FAAH (Rattus norvegicus, UniProt P97612); assay: FAAH enzyme assay, hydrolysis of 14C-oleamide by solubilized liver plasma membrane extract; assay type: biochemical
T4 construct: using a solubilized liver plasma membrane extract containing FMH; from tissue; host or cells: liver plasma membrane (solubilized extract)
T4 sequence (P97612 1-579): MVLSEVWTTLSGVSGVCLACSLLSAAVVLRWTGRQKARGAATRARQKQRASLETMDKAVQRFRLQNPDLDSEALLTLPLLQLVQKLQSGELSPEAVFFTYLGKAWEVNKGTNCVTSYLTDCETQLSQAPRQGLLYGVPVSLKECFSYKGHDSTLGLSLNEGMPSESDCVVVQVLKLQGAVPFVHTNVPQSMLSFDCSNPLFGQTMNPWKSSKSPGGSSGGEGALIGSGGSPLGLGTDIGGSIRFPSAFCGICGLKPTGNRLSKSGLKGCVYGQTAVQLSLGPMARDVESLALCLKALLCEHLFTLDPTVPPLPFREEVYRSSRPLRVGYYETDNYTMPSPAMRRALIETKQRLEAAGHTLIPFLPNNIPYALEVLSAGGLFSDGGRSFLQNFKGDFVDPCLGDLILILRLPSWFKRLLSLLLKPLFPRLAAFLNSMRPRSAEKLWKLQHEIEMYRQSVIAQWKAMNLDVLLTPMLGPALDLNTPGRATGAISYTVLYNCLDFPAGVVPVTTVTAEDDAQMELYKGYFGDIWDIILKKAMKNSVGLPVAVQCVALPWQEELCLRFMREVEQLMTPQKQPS
Procedure: All enzyme assays were performed at 20-23° C. using a solubilized liver plasma membrane extract containing […] in a reaction buffer of 125 mM Tris, 1 mM EDTA, 0.2% glycerol, 0.02% Triton X-100, 0.4 mM HEPES, pH 9.0 buffer (Patricelli, M. P. et al. Bioorg. Med. Chem. Lett. 1998, 8, 613-618; Patterson, J. E., et al. J. Am Chem. Soc. 1996, 118, 5938-5945). The initial rates of hydrolysis were monitored by following the breakdown of ^14C-oleamide to oleic acid as described previously (Cravatt, B. F. et al. Science 1995, 268, 1506-1509; Patricelli, M. P. et al., 1998). The inhibition was reversible, non time-dependent. Linear least squares fits were used for all reaction progress curves and R^2 values were consistently >0.97. IC50 values were determined from the inhibition observed at 3-5 different test compound concentrations (from three or more trials at each concentration) using the formula IC50=[I]/[(K0/Ki)−1], where K0 is the control reaction rate without inhibitor and Ki is the rate with test compound at concentration [I] (Conde-Frieboes, K., et al. J. Am. Chem. Soc. 1996, 118, 5519-5525). Ki values were determined by the Dixon Method (x-intercepts of weighted linear fits of [I] versus 1/rate plots at constant substrate concentration, which were converted to Ki values using the formula Ki=−xint/[1+[S]/Km]).

rats [4] = settings: WO 02/087569; cited from earlier work
rats [5] = settings: WO 02/087569; cited from earlier work; remark: listed apart in the source
rats [6] = settings: cited from earlier work
rats [7] = settings: WO 04/033652; cited from earlier work
FAAH [8] = molecular target: T5, FAAH (Homo sapiens, UniProt O00519); settings: cited from earlier work
T5 sequence (O00519 1-579): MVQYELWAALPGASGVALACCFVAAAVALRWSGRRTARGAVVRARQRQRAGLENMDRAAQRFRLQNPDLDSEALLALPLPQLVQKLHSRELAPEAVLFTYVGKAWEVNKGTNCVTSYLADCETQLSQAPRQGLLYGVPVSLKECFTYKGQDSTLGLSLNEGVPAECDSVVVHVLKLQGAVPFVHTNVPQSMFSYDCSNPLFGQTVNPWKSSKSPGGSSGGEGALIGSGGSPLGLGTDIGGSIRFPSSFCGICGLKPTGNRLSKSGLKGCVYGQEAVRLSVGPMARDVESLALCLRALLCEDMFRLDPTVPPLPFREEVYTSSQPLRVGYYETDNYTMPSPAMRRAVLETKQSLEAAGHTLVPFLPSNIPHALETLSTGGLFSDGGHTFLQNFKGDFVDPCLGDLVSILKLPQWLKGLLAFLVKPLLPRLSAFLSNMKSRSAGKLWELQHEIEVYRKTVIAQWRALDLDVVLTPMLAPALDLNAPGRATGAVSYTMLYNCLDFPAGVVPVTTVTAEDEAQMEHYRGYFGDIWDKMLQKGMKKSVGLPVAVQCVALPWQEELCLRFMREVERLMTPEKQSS

CREAE mice = settings: Baker 2001; cited from earlier work
rats [9] = settings: rat; Kathuria 2003; cited from earlier work
rats [10] = settings: Kathuria 2003; cited from earlier work
[11] = Table 1, Dixon method, 14C-oleamide substrate, pH 9.0, 20-23° C., read-out: Ki
[12] = Table 2 (repeats the enzyme assay Ki), read-out: FAAH Ki

Structure (SMILES)	IC50 (KIAA1363) [nM]	IC50 (FAAH [1]) [nM]	IC50 [2] [nM]	Ki (FAAH [3]; [11]) [nM]	further results
O=C(CCCCCCc1ccccc1)c1nnc(-c2cccnc2)o1 [Example 9, 7-Phenyl-1-[5-(pyridin-3-yl)-1,3,4-oxadiazol-2-yl]-heptan-1-one]	> 100000	20	100	1	
Cc1nc(-c2ccccc2)c(-c2ccccc2)n1CCCCCCNC(=O)Oc1ccccc1F [BMS-1]					analgesic effect, Chung spinal nerve ligation model (rats [4]): analgesic effect; analgesic effect, Hargraves test (rats [5]): analgesic effect
O=C(CCCCCCc1ccccc1)c1nnc(-c2ccco2)o1 [Example 11]	> 100000	1	80		
O=C(CCCCCCc1ccccc1)c1nnc(-c2ccncc2)o1 [Example 10, 7-Phenyl-1-[5-(pyridin-4-yl)-1,3,4-oxadiazol-2-yl]-heptan-1-one]	> 100000	20	30	1	
O=C(CCCCCCc1ccccc1)c1ncc(-c2ccccn2)o1 [OL-135]					analgesic efficacy/activity in hot plate test (rats [6]): analgesic activity; analgesic activity in tail emersion test (rats [7]): analgesic activity; FAAH inhibition (FAAH [8]): potent inhibitor
CCCCCCCCCCCCCCCCS(=O)(=O)F [AM374]					spasticity (CREAE mice): significantly reduce spasticity
O=C(CCCCCCc1ccccc1)c1nnc(-c2ccccc2)o1 [Example 6, 7-Phenyl-1-(5-phenyl-1,3,4-oxadiazol-2-yl)-heptan-1-one]	> 100000	25	250	2	Ki (FAAH [3]; [12]): 2 nM
NC(=O)c1cccc(-c2cccc(OC(=O)NC3CCCCC3)c2)c1 [URB-597]					analgesic efficacy in formalin test (rats [9]): analgesic efficacy; analgesic efficacy/activity in hot plate test (rats [6]): analgesic efficacy; efficacy in zero plus maze model of anxiety (rats [10]): efficacy

Now from value to molecule, other results behind:

IC50 (KIAA1363) [nM]	IC50 (FAAH [1]) [nM]	IC50 [2] [nM]	Ki (FAAH [3]; [11]) [nM]	Structure (SMILES)	further results
90000	4	30	0.85	O=C(CCCCCc1ccccc1)c1nnc(-c2ccccn2)o1 [Example 2, 6-Phenyl-1-[5-(pyridin-2-yl)-1,3,4-oxadiazol-2-yl]-hexan-1-one]	
			3	CCCCCCCC/C=C\CCCCCCCC(=O)c1nnc(-c2ccccn2)o1 [Example 5, 1-[5-(Pyridin-2-yl)-1,3,4-oxadiazol-2-yl]-octadec-9-en-1-one]	
			16	CCCCCCCC/C=C\CCCCCCCC(=O)c1nnc(-c2ccccc2)o1 [Example 7, 1-(5-Phenyl-1,3,4-oxadiazol-2-yl)-octadec-9-en-1-one]	
50000	1	140		O=C(CCCCCCc1ccccc1)c1nnc(-c2ccccn2)o1 [Example 1, 7-Phenyl-1-[5-(pyridin-2-yl)-1,3,4-oxadiazol-2-yl]-heptan-1-one]	
3000	0.8	500	0.83	O=C(CCCCCCCCc1ccccc1)c1nnc(-c2ccccn2)o1 [Example 4, 9-Phenyl-1-[5-(pyridin-2-yl)-1,3,4-oxadiazol-2-yl]-nonan-1-one]	Ki (FAAH [3]; [12]): 0.83 nM
60000	0.6	200	0.77	O=C(CCCCCCCc1ccccc1)c1nnc(-c2ccccn2)o1 [Example 3, 8-Phenyl-1-[5-(pyridin-2-yl)-1,3,4-oxadiazol-2-yl]-octan-1-one]	
